Results reported in ChEMBL document CHEMBL4392851, “Synthesis and structure-activity relationships for new 6-fluoroquinoline derivatives with antiplasmodial activity” (Bioorg Med Chem, 2019).

Legend:
[1] = system: L6; test: Cytotoxicity in rat L6 cells assessed as reduction in cell viability incubated for 72 hrs by alamar blue assay; format: cell-based; settings: L6, 72 h
[2] = Selectivity index, ratio of IC50 for rat L6 cells to IC50 for chloroquine and pyrimethamine resistant Plasmodium falciparum K1; format: toxicity; settings: read-out: Ratio IC50
[3] = system: Plasmodium falciparum; test: Antiplasmodial activity against chloroquine and pyrimethamine resistant Plasmodium falciparum K1 erythrocytic stages incubated for 48 hrs by [3H]-hypoxanthine incorporation assay; format: functional, organism-based
[4] = Selectivity index, ratio of IC50 for rat L6 cells to IC50 for chloroquine-sensitive Plasmodium falciparum NF54 erythrocytic stages; format: toxicity; settings: read-out: Ratio IC50
[5] = system: Plasmodium falciparum; test: Antiplasmodial activity against chloroquine-sensitive Plasmodium falciparum NF54 erythrocytic stages incubated for 48 hrs by [3H]-hypoxanthine incorporation assay; format: functional, organism-based
[6] = Effective permeability by PAMPA; format: ADME; settings: read-out: Peff
[7] = system: Plasmodium berghei; test: Antiplasmodial activity against GFP-transfected Plasmodium berghei ANKA infected in NMRI mouse assessed as reduction in parasitaemia at 50 mg/kg/day, ip for consecutive 4 days (4, 24, 48 and 72 hrs post infection) and measured up to 20 days after infection relative to untreated control; format: functional; set-up: scale not given: the % may be the effect or the level left
[8] = system: Plasmodium berghei
Description: Antiplasmodial activity against GFP-transfected Plasmodium berghei ANKA infected in NMRI mouse assessed as mean survival days at 50 mg/kg/day, ip for consecutive 4 days (4, 24, 48 and 72 hrs post infection) and measured up to 20 days after infection (Rvb = 6 to 7 days)

Row | IC50 [5] | Papp [6] | Structure (SMILES) | IC50 ([1]; read-out: IC50) | selectivity ratio [2] | IC50 [3] | selectivity ratio [4] | Activity [7] | MSD [8] | IC50 [1]
1 | 64 µM | 3.67 ×10⁻⁶ cm/s | O=C(c1cc(-c2ccc(CN3CCOCC3)cc2)nc2ccc(F)cc12)N1CCC(O)CC1 | 101 µM | – | – | 1.57 | – | – | –
2 | 7.38 µM | 5.53 ×10⁻⁶ cm/s | CCC(=O)N1CCN(C(=O)c2cc(-c3ccc(CN4CCOCC4)cc3)nc3ccc(F)cc23)CC1 | 92.4 µM | – | – | 12.6 | – | – | –
3 | 37.7 µM | – | O=C(c1cc(-c2ccc(CN3CCOCC3)cc2)nc2ccc(F)cc12)N1CCCCC1 | 102 µM | – | – | 2.69 | – | – | –
4 | 1.94 µM | 9.26 ×10⁻⁶ cm/s | CCCN1CCN(Cc2cc(-c3ccc(CN4CCOCC4)cc3)nc3ccc(F)cc23)CC1 | 14.9 µM | – | – | 7.67 | – | – | –
5 | 7.13 µM | 0.19 ×10⁻⁶ cm/s | CCOC(=O)N1CCC(NC(=O)c2cc(-c3ccc(CN4CCOCC4)cc3)nc3ccc(F)cc23)CC1 | 90.5 µM | – | – | 12.7 | – | – | –
6 | 4.62 µM | – | O=C(NCCc1ccccc1)c1cc(-c2ccc(CN3CCOCC3)cc2)nc2ccc(F)cc12 | 16.5 µM | – | – | 3.57 | – | – | –
7 | 5.99 µM | – | O=C(NCc1ccccc1)c1cc(-c2ccc(CN3CCOCC3)cc2)nc2ccc(F)cc12 | 103 µM | – | – | 17.2 | – | – | –
8 | 3.11 µM | 2.09 ×10⁻⁶ cm/s | CC(C)(C)N1CCN(CCNC(=O)c2cc(-c3ccc(CN4CCOCC4)cc3)nc3ccc(F)cc23)CC1 | 100 µM | – | – | 32.1 | – | – | –
9 | 0.61 µM | – | CN1CCN(CCC(=O)Nc2cc(-c3ccc(CN4CCOCC4)cc3)nc3ccc(F)cc23)CC1 | 31.6 µM | – | – | 51.8 | – | – | –
10 | 10.1 µM | 7.15 ×10⁻⁶ cm/s | CCC(=O)N1CCN(Cc2cc(-c3ccc(CN4CCOCC4)cc3)nc3ccc(F)cc23)CC1 | 38.6 µM | – | – | 3.83 | – | – | –
11 | 8.78 µM | – | O=C(NCC(F)(F)F)c1cc(-c2ccc(CN3CCOCC3)cc2)nc2ccc(F)cc12 | 98.9 µM | – | – | 11.3 | – | – | –
12 | 0.99 µM | – | O=C(NC1CCNCC1)c1cc(-c2ccc(CN3CCOCC3)cc2)nc2ccc(F)cc12 | 69.2 µM | – | – | 69.9 | – | – | –
13 | 14.9 µM | 9.35 ×10⁻⁶ cm/s | O=C(NCCc1ccccn1)c1cc(-c2ccc(CN3CCOCC3)cc2)nc2ccc(F)cc12 | 53.5 µM | – | – | 3.6 | – | – | –
14 | 5.6 µM | – | CC(NC(=O)c1cc(-c2ccc(CN3CCOCC3)cc2)nc2ccc(F)cc12)c1ccccc1 (racemic) | 72.4 µM | – | – | 12.9 | – | – | –
15 | – | – | C[C@@H]1CC[C@H]2[C@@H](C)C(=O)O[C@@H]3O[C@@]4(C)CC[C@@H]1[C@]32OO4 [ARTEMISININ] | – | 70400 | 0.0064 µM | – | – | – | –
16 | – | – | CCN(CC)CCCC(C)Nc1ccnc2cc(Cl)ccc12 (stereo not given) [CHLOROQUINE] | – | – | – | – | 99.6% | 20 days | –
17 | – | – | COc1cc([C@@H]2c3cc4c(cc3[C@H](O)[C@H]3COC(=O)[C@H]23)OCO4)cc(OC)c1OC [PODOFILOX] | – | – | – | – | – | – | 0.012 µM

Row | Structure (SMILES) | IC50 [5] | Papp [6] | IC50 ([1]; read-out: IC50) | selectivity ratio [2] | IC50 [3] | selectivity ratio [4] | Activity [7] | MSD [8] | IC50 [1]
18 | O=C(CN1CCCC1)Nc1cc(-c2ccc(CN3CCOCC3)cc2)nc2ccc(F)cc12 | 1.04 µM | – | 56.8 µM | 69.3 | 0.82 µM | 54.6 | – | – | –
19 | Fc1ccc2nc(-c3ccc(CN4CCOCC4)cc3)cc(CNCCN3CCN(c4ccccc4)CC3)c2c1 | 0.02 µM | 2.39 ×10⁻⁶ cm/s | 14.6 µM | 396 | 0.037 µM | 732 | – | – | –
20 | CC(C)(C)OC(=O)N1CCN(CCNCc2cc(-c3ccc(CN4CCOCC4)cc3)nc3ccc(F)cc23)CC1 | 0.018 µM | 4.57 ×10⁻⁶ cm/s | 19.8 µM | 484 | 0.041 µM | 1100 | – | – | –
21 | CC(C)(C)OC(=O)N1CCN(CCC(=O)Nc2cc(-c3ccc(CN4CCOCC4)cc3)nc3ccc(F)cc23)CC1 | 0.26 µM | – | 56.2 µM | 187 | 0.3 µM | 216 | – | – | –
22 | CC(C)(C)C(=O)N1CCN(CCNC(=O)c2cc(-c3ccc(CN4CCOCC4)cc3)nc3ccc(F)cc23)CC1 | 0.005 µM | 6.11 ×10⁻⁶ cm/s | 80 µM | – | – | 16000 | 25.2% | 4 days | –
23 | Nc1cc(-c2ccc(CN3CCOCC3)cc2)nc2ccc(F)cc12 | 0.23 µM | – | 21.5 µM | 55 | 0.39 µM | 93.3 | – | – | –
24 | CN1CCN(Cc2ccc(-c3cc(NC(=O)CCN4CCCC4)c4cc(F)ccc4n3)cc2)CC1 | 0.002 µM | – | 15.6 µM | 5370 | 0.0029 µM | 7780 | 99.6% | 16 days | –
25 | CC(C)(C)C(=O)N1CCN(CC(=O)Nc2cc(-c3ccc(CN4CCOCC4)cc3)nc3ccc(F)cc23)CC1 | 9.57 µM | – | 74.8 µM | 15.2 | 4.91 µM | 7.82 | – | – | –
26 | Fc1ccc2nc(-c3ccc(CN4CCOCC4)cc3)cc(CNCCN3CCCC3)c2c1 | 0.0011 µM | 4.55 ×10⁻⁶ cm/s | 53.8 µM | 48900 | 0.0011 µM | 48900 | 99.4% | 10 days | –
27 | CC(C)(C)C(=O)N1CCN(CCC(=O)Nc2cc(-c3ccc(CN4CCOCC4)cc3)nc3ccc(F)cc23)CC1 | 0.53 µM | – | 44.5 µM | 124 | 0.36 µM | 83.9 | – | – | –
28 | CC(C)(C)OC(=O)N1CCN(CC(=O)Nc2cc(-c3ccc(CN4CCOCC4)cc3)nc3ccc(F)cc23)CC1 | 7.53 µM | – | 89.2 µM | 25.5 | 3.5 µM | 11.8 | – | – | –
29 | O=C(CCN1CCCC1)Nc1cc(-c2ccc(CN3CCOCC3)cc2)nc2ccc(F)cc12 | 0.004 µM | 10.1 ×10⁻⁶ cm/s | 123 µM | 11200 | 0.011 µM | 30800 | 33.9% | 4 days | –
